According to ChEMBL document CHEMBL3044578, “Synthesis, insecticidal activity, and molecular docking studies of nitenpyram analogues with a flexible ester arm anchored on tetrahydropyrimidine ring” (2011):
In brackets after ≈: the same amount, converted by molar mass.

Columns and labels:
Type in all cases: functional
Nilaparvata lugens [1] = test: Insecticidal activity against Nilaparvata lugens (brown planthopper) assessed as mortality at 100 mg/l after 72 hr
Nilaparvata lugens [2] = test: Insecticidal activity against Nilaparvata lugens (brown planthopper) assessed as mortality at 20 mg/l after 72 hr
Nilaparvata lugens [3] = test: Insecticidal activity against Nilaparvata lugens (brown planthopper) assessed as mortality at 500 mg/l after 72 hr
Nilaparvata lugens [4] = test: Insecticidal activity against Nilaparvata lugens (brown planthopper) assessed as mortality after 72 hr

| Structure (SMILES) | mortality at 100 µg/mL (Nilaparvata lugens [1]) [%] | mortality at 20 µg/mL (Nilaparvata lugens [2]) [%] | mortality at 500 µg/mL (Nilaparvata lugens [3]) [%] | LC50 (Nilaparvata lugens [4]) [µg/mL] |
| --- | --- | --- | --- | --- |
| CCCCOC(=O)CCCN1CC([N+](=O)[O-])=C(N(CC)Cc2ccc(Cl)nc2)N(C)C1 | 100 | 82 | 100 |  |
| CCC(C)OC(=O)CCCN1CC([N+](=O)[O-])=C(N(CC)Cc2ccc(Cl)nc2)N(C)C1 (configuration not stated) | 93 | 59 | 100 |  |
| CCN(Cc1ccc(Cl)nc1)C1=C([N+](=O)[O-])CN(CCCC(=O)OCC(C)C)CN1C | 100 | 54 | 100 |  |
| CCN(Cc1ccc(Cl)nc1)C1=C([N+](=O)[O-])CN(CCCC(=O)OC(C)(C)C)CN1C | 68 | 36 | 100 |  |
| CCC(C)OC(=O)CN1CC([N+](=O)[O-])=C(N(CC)Cc2ccc(Cl)nc2)N(C)C1 (configuration not stated) | 79 | 53 | 100 |  |
| CCN(Cc1ccc(Cl)nc1)C1=C([N+](=O)[O-])CN(CC(=O)OCC(C)C)CN1C | 100 | 68 | 100 |  |
| CCN(Cc1ccc(Cl)nc1)C1=C([N+](=O)[O-])CN(CC(=O)OC(C)(C)C)CN1C | 73 | 47 | 100 |  |
| CCN(Cc1ccc(Cl)nc1)C1=C([N+](=O)[O-])CN(CCC(=O)OC)CN1C | 100 | 95 | 100 |  |
| CCOC(=O)CCN1CC([N+](=O)[O-])=C(N(CC)Cc2ccc(Cl)nc2)N(C)C1 | 100 | 93 | 100 |  |
| CCCOC(=O)CCN1CC([N+](=O)[O-])=C(N(CC)Cc2ccc(Cl)nc2)N(C)C1 | 100 | 100 | 100 | 0.194 (≈ 0.455 µM) |
| CCN(Cc1ccc(Cl)nc1)C1=C([N+](=O)[O-])CN(CCC(=O)OC(C)C)CN1C | 100 | 100 | 100 | 0.162 (≈ 0.38 µM) |
| CCCCOC(=O)CCN1CC([N+](=O)[O-])=C(N(CC)Cc2ccc(Cl)nc2)N(C)C1 | 92 | 78 | 100 |  |
| CCC(C)OC(=O)CCN1CC([N+](=O)[O-])=C(N(CC)Cc2ccc(Cl)nc2)N(C)C1 (configuration not stated) | 100 | 84 | 100 |  |
| CCN(Cc1ccc(Cl)nc1)C1=C([N+](=O)[O-])CN(CCC(=O)OCC(C)C)CN1C | 100 | 52 | 100 |  |
| CCN(Cc1ccc(Cl)nc1)C1=C([N+](=O)[O-])CN(CCC(=O)OC(C)(C)C)CN1C | 81 | 66 | 100 |  |
| CCN(Cc1ccc(Cl)nc1)C1=C([N+](=O)[O-])CN(CCCC(=O)OC)CN1C | 100 | 79 | 100 |  |
| CCOC(=O)CCCN1CC([N+](=O)[O-])=C(N(CC)Cc2ccc(Cl)nc2)N(C)C1 | 100 | 85 | 100 |  |
| CCCOC(=O)CCCN1CC([N+](=O)[O-])=C(N(CC)Cc2ccc(Cl)nc2)N(C)C1 | 100 | 43 | 100 |  |
| CCN(Cc1ccc(Cl)nc1)C1=C([N+](=O)[O-])CN(CCCC(=O)OC(C)C)CN1C | 100 | 58 | 100 |  |
| CCN(Cc1ccc(Cl)nc1)C1=C([N+](=O)[O-])CN(CC(=O)OC)CN1C | 94 | 86 | 100 |  |
| CCOC(=O)CN1CC([N+](=O)[O-])=C(N(CC)Cc2ccc(Cl)nc2)N(C)C1 | 100 | 94 | 100 |  |
| CCCOC(=O)CN1CC([N+](=O)[O-])=C(N(CC)Cc2ccc(Cl)nc2)N(C)C1 | 96 | 73 | 100 |  |
| CCN(Cc1ccc(Cl)nc1)C1=C([N+](=O)[O-])CN(CC(=O)OC(C)C)CN1C | 85 | 76 | 100 |  |
| CCCCOC(=O)CN1CC([N+](=O)[O-])=C(N(CC)Cc2ccc(Cl)nc2)N(C)C1 | 75 | 67 | 100 |  |
| O=[N+]([O-])/N=C1\NCCN1Cc1ccc(Cl)nc1 [IMIDACLOPRID] | 100 | 100 | 100 | 0.108 (≈ 0.422 µM) |
| CCN(Cc1ccc(Cl)nc1)/C(=C/[N+](=O)[O-])NC [NITENPYRAM] | 100 | 100 | 100 | 0.129 (≈ 0.477 µM) |
